Converted amounts (≈) assume the structure as drawn.
How the values were obtained:
Assay in all cases: ≥ marks a high value that may be exact or a test limit, other limits are often not marked, values filed in µg/mL are converted to µM
[1] = tested on: Micrococcus luteus CCM 144
[2] = tested on: Bacillus subtilis 168
[3] = tested on: Pseudomonas aeruginosa
[4] = tested on: Staphylococcus aureus 1
[5] = tested on: Pseudomonas aeruginosa ATCC 27853
[6] = tested on: Candida albicans F7-39/IDE99
[7] = tested on: Escherichia coli B
[8] = tested on: Staphylococcus aureus ATCC 43300
[9] = tested on: Staphylococcus aureus
[10] = tested on: Staphylococcus epidermidis
[11] = tested on: Fusarium graminearum PH-1
[12] = tested on: Escherichia coli MG1655
[13] = tested on: Staphylococcus aureus ATCC 25923
[14] = tested on: Pseudomonas aeruginosa ATCC 10145
[15] = tested on: Klebsiella pneumoniae ATCC 700603
[16] = tested on: Staphylococcus aureus HNCMO 112011
[17] = tested on: Acinetobacter baumannii ATCC 17978
[18] = tested on: Escherichia coli ATCC 8739
[19] = tested on: Micrococcus luteus ATCC 10240
[20] = tested on: Escherichia coli BL21AI
[21] = tested on: Staphylococcus aureus NCTC 8325-4
[22] = tested on: Klebsiella pneumoniae NCIMB 13218
[23] = tested on: Escherichia coli NCIMB 11843
[24] = tested on: Staphylococcus aureus SA113
[25] = tested on: Salmonella enterica subsp. enterica serovar Typhimurium LT2
[26] = tested on: Staphylococcus aureus Newman
[27] = tested on: Staphylococcus aureus RN4220
[28] = tested on: Pseudomonas fluorescens NCIMB 9046
[29] = tested on: Cronobacter sakazakii ATCC BAA-894
[30] = tested on: Cronobacter sakazakii DPC 6440
[31] = tested on: Cronobacter sakazakii DSM 4485
[32] = tested on: Cronobacter muytjensii ATCC 51329
[33] = tested on: Staphylococcus aureus RF122

Question: With CC[C@H](C)[C@H](NC(=O)CN)C(=O)N[C@@H](CC(C)C)C(=O)N[C@@H](CO)C(=O)N[C@@H](CCCCN)C(=O)N[C@@H](CC(C)C)C(=O)N[C@@H](CC(C)C)C(=O)N[C@@H](CCCCN)C(=O)N[C@@H](CCCCN)C(=O)N[C@@H](CC(C)C)C(=O)N[C@@H](CCCCN)C(=O)N[C@@H](CCCCN)C(=O)N[C@H](C(=O)N[C@H](C(=O)N[C@@H](C)C(=O)N[C@@H](CCCCN)C(N)=O)[C@@H](C)CC)[C@@H](C)CC [GILSKLLKKLKKIIAK] as the molecule, how does the MIC [1] read?
Answer: The MIC was 3 µM (≈ 5.38 µg/mL).

Question: And the MIC [2]?
Answer: The MIC was 7 µM (≈ 12.6 µg/mL).

Question: What about the MIC [3] of the same molecule?
Answer: Its MIC is 8.5 µM (≈ 15.2 µg/mL).

Question: What about the MIC [4] of the same molecule?
Answer: Its MIC is 5.9 µM (≈ 10.6 µg/mL).

Question: And the MIC [5]?
Answer: Its MIC is 4.5 µM (≈ 8.07 µg/mL).

Question: What about the MIC [6] of the same molecule?
Answer: Its MIC is no less than 45 µM.

Question: What about the MIC [7] of the same molecule?
Answer: The MIC was 18 µM (≈ 32.3 µg/mL).

Question: What about the MIC [8] of the same molecule?
Answer: Its MIC is 23 µM (≈ 41.2 µg/mL).

Question: And the MIC [9]?
Answer: The MIC was 10 µM (≈ 17.9 µg/mL).

Question: And the MIC [10]?
Answer: The MIC was 1.8 µM (≈ 3.23 µg/mL).

Question: CC[C@H](C)[C@H](NC(=O)CN)C(=O)N[C@@H](CC(C)C)C(=O)N[C@@H](CO)C(=O)N[C@@H](CO)C(=O)N[C@@H](CC(C)C)C(=O)N[C@@H](CC(C)C)C(=O)N[C@@H](CCCCN)C(=O)N[C@@H](CCCCN)C(=O)N[C@@H](CC(C)C)C(=O)N[C@@H](CCCCN)C(=O)N[C@@H](CCCCN)C(=O)N[C@@H](Cc1c[nH]c2ccccc12)C(=O)N[C@H](C(=O)N[C@@H](C)C(=O)N[C@@H](CCCCN)C(N)=O)[C@@H](C)CC [GILSSLLKKLKKWIAK] was tested. Which MIC [1] did it give?
Answer: Its MIC is 3 µM (≈ 5.48 µg/mL).

Question: And the MIC [2]?
Answer: The MIC was 7 µM (≈ 12.8 µg/mL).

Question: And the MIC [3]?
Answer: Its MIC is 21 µM (≈ 38.3 µg/mL).

Question: And the MIC [4]?
Answer: The MIC was 2.6 µM (≈ 4.75 µg/mL).

Question: What about the MIC [5] of the same molecule?
Answer: Its MIC is 8 µM (≈ 14.6 µg/mL).

Question: What about the MIC [6] of the same molecule?
Answer: The MIC was 16 µM (≈ 29.2 µg/mL).

Question: What about the MIC [7] of the same molecule?
Answer: The MIC was 4 µM (≈ 7.3 µg/mL).

Question: What about the MIC [8] of the same molecule?
Answer: The MIC was 8 µM (≈ 14.6 µg/mL).

Question: What about the MIC [9] of the same molecule?
Answer: The MIC was 4 µM (≈ 7.3 µg/mL).

Question: And the MIC [10]?
Answer: The MIC was 1.6 µM (≈ 2.92 µg/mL).

Question: What does the source list for CC[C@H](C)[C@H](NC(=O)CN)C(=O)N[C@@H](CCSC)C(=O)N[C@@H](CO)C(=O)N[C@@H](CO)C(=O)N[C@@H](CC(C)C)C(=O)N[C@@H](CCSC)C(=O)N[C@@H](CCCCN)C(=O)N[C@@H](CCCCN)C(=O)N[C@@H](CC(C)C)C(=O)N[C@@H](CCCCN)C(=O)N[C@@H](CCCCN)C(=O)N[C@H](C(=O)N[C@H](C(=O)N[C@@H](C)C(=O)N[C@@H](CCCCN)C(N)=O)[C@@H](C)CC)[C@@H](C)CC [GIMSSLMKKLKKIIAK]?
Answer: MIC [1]: 3 µM (≈ 5.37 µg/mL); MIC [2]: 7 µM (≈ 12.5 µg/mL); MIC [3]: 7.4 µM (≈ 13.2 µg/mL); MIC [4]: 7.6 µM (≈ 13.6 µg/mL); MIC [5]: 5 µM (≈ 8.94 µg/mL); MIC [6]: 5.2 µM (≈ 9.3 µg/mL); MIC [7]: 9 µM (≈ 16.1 µg/mL); MIC [8]: 32 µM (≈ 57.2 µg/mL); MIC [9]: 23 µM (≈ 41.1 µg/mL); MIC [10]: 1.9 µM (≈ 3.4 µg/mL)

Question: With NCC(=O)N[C@@H](CCCN=C(N)N)C(=O)N[C@H]1CSSC[C@@H](C(=O)O)NC(=O)[C@H](CCCN=C(N)N)NC(=O)[C@H](Cc2ccccc2)NC(=O)[C@H](CC(=O)O)NC(=O)[C@H](CC(=O)O)NC(=O)[C@H](CCCN=C(N)N)NC1=O [GRCRDDFRC] as the molecule, how does the MIC [11] read?
Answer: The MIC was no less than 192 µM.

Question: How did the MIC [11] turn out when NCC(=O)N[C@@H](CCCN=C(N)N)C(=O)N[C@H]1CSSC[C@@H](C(=O)O)NC(=O)[C@H](CCCN=C(N)N)NC(=O)[C@H](CCCN=C(N)N)NC(=O)[C@H](CCCN=C(N)N)NC(=O)[C@H](Cc2ccccc2)NC(=O)CNC(=O)[C@H](CCCN=C(N)N)NC1=O [GRCRGFRRRC] was run?
Answer: The MIC was 6 µM (≈ 7.59 µg/mL).

Question: How did the MIC [12] turn out when CC(C)C[C@H](NC(=O)[C@H](Cc1c[nH]c2ccccc12)NC(=O)[C@H](Cc1cnc[nH]1)NC(=O)[C@H](CCCCN)NC(=O)[C@H](CC(C)C)NC(=O)[C@H](C)NC(=O)[C@H](CC(C)C)NC(=O)[C@H](CCCCN)NC(=O)CNC(=O)[C@@H](NC(=O)[C@@H](NC(=O)[C@H](CCCCN)NC(=O)[C@@H](NC(=O)[C@H](CCC(=O)O)NC(=O)[C@H](C)NC(=O)[C@H](CCCCN)NC(=O)[C@H](CCCCN)NC(=O)[C@H](CC(C)C)NC(=O)[C@H](CC(C)C)NC(=O)[C@@H](NC(=O)[C@H](CCCN=C(N)N)NC(=O)[C@H](Cc1ccc(O)cc1)NC(=O)CN)[C@@H](C)O)C(C)C)[C@@H](C)O)C(C)C)C(=O)O [GYRTLLKKAEVKTVGKLALKHWL] was run?
Answer: Its MIC is 15 µM (≈ 39.8 µg/mL).

Question: What about the MIC [13] of the same molecule?
Answer: The MIC was 15 µM (≈ 39.8 µg/mL).

Question: What about the MIC [14] of the same molecule?
Answer: The MIC was 15 µM (≈ 39.8 µg/mL).

Question: What about the MIC [15] of the same molecule?
Answer: The MIC was greater than 15 µM.

Question: With CC[C@H](C)[C@H](NC(=O)[C@H](CCCCN)NC(=O)[C@H](CCCCN)NC(=O)[C@H](C)NC(=O)[C@H](CC(C)C)NC(=O)[C@H](C)NC(=O)[C@H](C)NC(=O)[C@H](CC(C)C)NC(=O)[C@H](C)NC(=O)[C@@H](N)CCCCN)C(=O)N[C@@H](CC(C)C)C(=O)N[C@@H](CCC(N)=O)C(=O)N[C@@H](CCC(N)=O)C(=O)N[C@@H](CS)C(=O)N[C@@H](CCCN=C(N)N)C(=O)N[C@@H](CCCN=C(N)N)C(=O)N1CCC[C@H]1C(=O)N[C@@H](CC(C)C)C(=O)N[C@@H](Cc1ccc(O)cc1)C(=O)N[C@@H](CS)C(=O)N[C@@H](CCCN=C(N)N)C(=O)N[C@@H](CCCN=C(N)N)C(=O)N[C@@H](CCCN=C(N)N)C(=O)O [KALAALAKKILQQCRRPLYCRRR] as the molecule, how does the MIC [16] read?
Answer: Its MIC is 3.1 µM (≈ 8.54 µg/mL).

Question: What about the MIC [17] of the same molecule?
Answer: The MIC was 3.1 µM (≈ 8.54 µg/mL).

Question: And the MIC [18]?
Answer: The MIC was 6.3 µM (≈ 17.4 µg/mL).

Question: C[C@H](NC(=O)[C@H](C)NC(=O)[C@H](CCCCN)NC(=O)[C@H](CCCCN)NC(=O)[C@H](C)NC(=O)[C@H](Cc1ccccc1)NC(=O)[C@H](CCCCN)NC(=O)[C@H](CCCCN)NC(=O)[C@H](C)NC(=O)[C@H](Cc1ccccc1)NC(=O)[C@H](CCCCN)NC(=O)[C@H](CCCCN)NC(=O)[C@H](C)NC(=O)[C@H](Cc1ccccc1)NC(=O)[C@@H](N)CCCCN)C(=O)N[C@@H](CCCCN)C(=O)O [KFAKKFAKKFAKKAAK] was tested. Which MIC [14] did it give?
Answer: The MIC was no less than 136 µM.

Question: Which MIC [11] does the source give for C[C@H](NC(=O)CNC(=O)[C@@H](N)CCCN=C(N)N)C(=O)N[C@@H](CCCN=C(N)N)C(=O)N[C@@H](CCCN=C(N)N)C(=O)N[C@@H](CCCN=C(N)N)C(=O)O [RGARRR] here?
Answer: The MIC was no less than 96 µM.

Question: With CC[C@H](C)[C@H](NC(=O)[C@H](CCCN=C(N)N)NC(=O)[C@H](CCCN=C(N)N)NC(=O)[C@@H]1CCCN1C(=O)[C@@H]1CCCN1C(=O)[C@H](CCCN=C(N)N)NC(=O)[C@@H]1CCCN1C(=O)[C@H](CCCN=C(N)N)NC(=O)[C@@H]1CCCN1C(=O)[C@H](CC(C)C)NC(=O)[C@H](Cc1ccc(O)cc1)NC(=O)[C@@H]1CCCN1C(=O)[C@@H]1CCCN1C(=O)[C@H](CCCCN)NC(=O)[C@H](CC(=O)O)NC(=O)[C@@H](N)C(C)C)C(=O)N[C@@H](Cc1ccc(O)cc1)C(=O)N[C@@H](CC(N)=O)C(=O)N[C@@H](C)C(N)=O [VDKPPYLPRPRPPRRIYNA] as the molecule, how does the MIC [19] read?
Answer: The MIC was 6.94 µM (≈ 16 µg/mL).

Question: What about the MIC [20] of the same molecule?
Answer: Its MIC is 13.9 µM (≈ 32 µg/mL).

Question: Which MIC [21] does the source give for CC(C)C[C@H](NC(=O)[C@H](CC(C)C)NC(=O)[C@H](CC(N)=O)NC(=O)[C@H](CC(=O)O)NC(=O)[C@H](CC(N)=O)NC(=O)[C@H](CC(C)C)NC(=O)[C@@H](N)C(C)C)C(=O)N[C@@H](CCCN=C(N)N)C(=O)O [VLNDNLLR] here?
Answer: Its MIC is no less than 2500 µM.

Question: What about the MIC [22] of the same molecule?
Answer: Its MIC is no less than 2500 µM.

Question: What about the MIC [23] of the same molecule?
Answer: Its MIC is no less than 2500 µM.

Question: And the MIC [24]?
Answer: The MIC was no less than 2500 µM.

Question: What about the MIC [25] of the same molecule?
Answer: Its MIC is no less than 2500 µM.

Question: What about the MIC [26] of the same molecule?
Answer: Its MIC is no less than 2500 µM.

Question: And the MIC [27]?
Answer: Its MIC is no less than 2500 µM.

Question: And the MIC [28]?
Answer: The MIC was no less than 2500 µM.

Question: And the MIC [29]?
Answer: Its MIC is no less than 2500 µM.

Question: What about the MIC [30] of the same molecule?
Answer: The MIC was no less than 2500 µM.

Question: What about the MIC [31] of the same molecule?
Answer: The MIC was no less than 2500 µM.

Question: And the MIC [32]?
Answer: The MIC was no less than 2500 µM.

Question: And the MIC [33]?
Answer: Its MIC is no less than 2500 µM.

— DBAASP
